Results on 14 molecules are retold here after patent US7575640B2, “Method for producing sugar and sugar-containing products from sugar-containing plant raw materials” (Zuckerforschung Tulln Gesellschaft m.b.H., priority 2003, dated 2009).

Each structure is given as a SMILES string. In brackets after ≈: the same amount, converted by molar mass. Counter-ions that a name gives are not always drawn. Like-named read-outs stand apart in the source and are kept apart here.

Assay [1] relates to thermophilic microorganisms. As to the kind of experiment: germ-inhibiting activity (acid formation) under sugar production conditions, general statements. The class given is cell-based. The protocol: If at 35-45° C., i.e. at those temperatures, at which it is usually worked in microbiology, a culture medium is inoculated with non-sterile crude juice from a sugar beet extraction, in most cases it is difficult to stop, by the addition of fatty acids, an acid formation recognizable by a drop in the pH (particularly in mixed cultures in which insensitive microorganism can prevail). On the other hand, the acid formation at 55° C. and 65° C. is blocked by fatty acids, depending on the chain lengths, at concentrations of from 4 to 40 mg/l over a period of time of from 1 to 10 hours. While a maximum of C11-C12 is indicated for the effects observed at normal temperature (Ullmann 1975), for thermophilic microorganisms at the higher temperature the effective maximum lies at C14 (myristic acid)
(§1) If a sugar-containing substrate, e.g. a sugar-containing liquid culture medium, as it is common in microbiology, is either non-sterilized or incubated after inoculation with a bacterial strain, an acid formation will occur which is the easiest to recognize by a drop in the pH. The same phenomenon will occur when incubating normal sugar-containing plant juices, e.g. beet juice. In an industrial process, e.g. in the recovery of sugar juice from sugar beets, a drop in the pH by degradation of sugar means a loss of sugar and a need for an alkalizing agent. Moreover, a drop in the pH with an increase in the germ content in the substrate often is associated with an unpleasant gas and nitrite formation. This arrangement also forms an efficient system for determining the germ-inhibiting activity of substances within the scope of the sugar production process.
If during such an acid formation caused by thermophilic microorganisms at higher temperatures, for instance a solution of fatty acid compounds according to the invention is added, the acid formation and the drop in the pH associated therewith will stop starting from a certain concentration of 10 ppm. Thus, the disadvantages associated with the acid formation can be avoided by the addition of myristic acid, e.g., to a sugar-containing substrate. […]

The subject of assay [2] is thermophilic bacteria. Put plainly: pH drop (acid formation) in liquid culture medium inoculated with crude juice from sugar beet extraction, 65° C. The assay is classed as cell-based, thermophilic bacteria (mixed culture). To be noted: for behavior in such an example (effect on pH drop): as Example 2, compared with palmitic acid (basic effect lasting only a very short period); for concentration at which the pH drop is stopped / effect reached: additions of 10 mg/l. The procedure: as §1, with “formation.” for “formation. This arrangement also forms an efficient system for determining the germ-inhibiting activity of substances within the scope of the sugar production process.”
A liquid culture medium, as commonly used in microbiology and consisting of 10 g of Bacto-peptone, 5 g of meat extract, 5 g of yeast extract, 1 g of glucose, 1 g of K2HPO4, 0.1 g of MgSO4*7H2O and 0.01 g of FeSO4*7H2O per liter of distilled water, is sterilized in conventional manner for 20 min at 120° C. and inoculated, in a vessel kept at a temperature of 65° C., with 20 ml of crude juice from a large-scale sugar beet extraction, wherein the pH is registered on a recorder. Upon the growth of thermophilic bacteria, the pH drops progressively. This indicates a microorganism-caused acid formation.
A mixed culture according to Example 1 is prepared.

Assay [3] relates to thermophilic bacteria. Put plainly: determination of MIC by stepwise addition until stabilization of the pH, 65° C. The assay is classed as cell-based, thermophilic bacteria (mixed culture). The procedure: To illustrate the antimicrobial activity within the scope of sugar production, examples are carried out with […] compounds by way of example. […] Upon the growth of thermophilic bacteria, the pH drops progressively. This indicates a microorganism-caused acid formation. […] The fatty acid compounds used in this Example are myristic acid and lauric acid, and their potassium salts, respectively. In this case, the acids were used both individually and in a 1:1 mixture, the salts were exclusively used in a 1:1 mixture.

[4] abbreviates: Time 4.50 h, 3×10 mg/l added between pH 6.74 and 6.49, 65° C.
The mark [5] stands for this setting: Time 4.75 h, total 30 mg/l, 65° C.
[6] abbreviates: Time 5 h, total 30 mg/l, 65° C.
Setting [7] is: Time 6 h, total 30 mg/l, 65° C.
Where [8] appears, read: Time 7 h, total 30 mg/l, 65° C.
The mark [9] stands for this setting: Time 8 h, total 30 mg/l, 65° C.
Setting [10] is: Time 9 h, total 30 mg/l, 65° C.
Setting [11] is: Time 10 h, total 30 mg/l, 65° C.
Setting [12] is: dissolved in ethanol, 10 mg/l steps, maximum 150 mg/l, 65° C., read-out: Min. Inhibitory Conc. (MIC).
Where [13] appears, read: Time 6.00 h, 10 mg/l added at pH 6.52 (5.10 h), 65° C.
The mark [14] stands for this setting: Time 6.50 h, 10 mg/l added at pH 6.52 (5.10 h), 65° C.
Setting [15] is: Time 7 h, 10 mg/l added at pH 6.52 (5.10 h), 65° C.
[16] abbreviates: Time 8 h, 10 mg/l at pH 6.52 and 4×10 mg/l between pH 6.49 and 6.36, 65° C.
[17] abbreviates: Time 9 h, total 50 mg/l, 65° C.
Setting [18] is: Time 6 h, 10 mg/l as potassium salt added at pH 6.46 (5 h), 65° C.
Where [19] appears, read: Time 7 h, 10 mg/l as potassium salt added at pH 6.46 (5 h), 65° C.
The mark [20] stands for this setting: Time 8 h, 10 mg/l as potassium salt added at pH 6.46 (5 h), 65° C.
[21] abbreviates: Time 9 h, 10 mg/l as potassium salt added at pH 6.46 (5 h), 65° C.
[22] abbreviates: Time 11 h, 10 mg/l as potassium salt added at pH 6.46 (5 h), 65° C.
The mark [23] stands for this setting: Time 13 h, 10 mg/l as potassium salt added at pH 6.46 (5 h), 65° C.
[24] abbreviates: Time 15 h, 10 mg/l as potassium salt added at pH 6.46 (5 h), 65° C.
Where [25] appears, read: Time 17 h, 10 mg/l as potassium salt added at pH 6.46 (5 h), 65° C.

In the case of `CCCCCCCCCCCCCCCCCCO` [stearyl alcohol], in assay [1], the effective concentration result is listed as “markedly higher concentrations have to be employed”.
As for `CCCCCCCCCCCCCCCCCC(=O)O` [stearic acid], the “behavior in such an example (effect on pH drop)” value (from here on “behavior in such an example”) with thermophilic bacteria [2] is recorded as “Quite similar”.
Consider `CCCCCCCCCCCC(=O)O` [lauric acid], for which the “effect on pH drop” value with thermophilic bacteria [2] (20 mg/l (two additions), mixed culture, 65° C.) is reported as “does not have any effect”. Besides, the pH in the assay with thermophilic bacteria [2] (setting [4]) is on record as 6.49; in the assay with thermophilic bacteria [2] (setting [5]), 6.49; in the assay on thermophilic bacteria [2] (setting [6]) it was 6.49; in the assay on thermophilic bacteria [2] (setting [7]), 6.50; with thermophilic bacteria [2] (setting [8]), 6.51; in the assay with thermophilic bacteria [2] (setting [9]) it was 6.52. The pH worked out at 6.52 in the assay with thermophilic bacteria [2] (setting [10]) and 6.53 with thermophilic bacteria [2] (setting [11]). The ΔpH/h is 1.00 in the assay with thermophilic bacteria [2] (setting [4]); 0.00 in the assay with thermophilic bacteria [2] (setting [5]); 0.00 in the assay on thermophilic bacteria [2] (setting [6]); −0.01 in the assay on thermophilic bacteria [2] (setting [7]); −0.01 in the assay on thermophilic bacteria [2] (setting [8]); −0.01 in the assay with thermophilic bacteria [2] (setting [9]). Besides, the ΔpH/h with thermophilic bacteria [2] (setting [10]) is listed as 0.00; in the assay on thermophilic bacteria [2] (setting [11]), −0.01. In the assay with thermophilic bacteria [2] (mixed culture, 65° C.), the “concentration at which the pH drop is stopped / effect reached” value is recorded as 30 mg/l. The MIC with thermophilic bacteria [3] (dissolved in ethanol, steps of 2 mg/l, read-out: Min. Inhibitory Conc. (MIC)) was determined as 18 µg/mL (≈ 89.9 µM); in the assay with thermophilic bacteria [3] (text summary of Example 9, read-out: MIC (concentration successfully used)), 18000 µg/mL (≈ 89900 µM).
Take `CCCCCCCCCCCCCCO` [Myristyl Alcohol, 1-tetradecanol]: the MIC in the assay on thermophilic bacteria [3] (setting [12]) came out at 10 µg/mL (≈ 46.6 µM). In addition, the effective concentration in assay [1] was not above 10 ppm.
Turning to `CCO` [alcohol], in the assay on thermophilic bacteria [2] (mixed culture, 65° C.), the “amount that impairs such a culture” value is listed as 40-60 ml alcohol per liter culture liquid.
As for `CCCCCCCCCCCCCCCC(=O)O` [palmitic acid], the “duration of effectiveness (pH drop stopped)” value with thermophilic bacteria [2] (10 mg/l, mixed culture, 65° C.) is 1.5-2 h. Further, the “effect on pH drop” value with thermophilic bacteria [2] (10 mg/l, mixed culture, 65° C.) was “immediately completely stopped”. For the same molecule, the pH with thermophilic bacteria [2] (setting [13]) was found to be 6.53; with thermophilic bacteria [2] (setting [14]) it was 6.53; with thermophilic bacteria [2] (setting [15]), 6.49; with thermophilic bacteria [2] (setting [16]), 6.36; with thermophilic bacteria [2] (setting [17]), 6.29. In addition, the ΔpH/h in the assay on thermophilic bacteria [2] (setting [13]) is reported as −0.01; in the assay with thermophilic bacteria [2] (setting [14]) it was 0.00; with thermophilic bacteria [2] (setting [15]), 0.08; in the assay on thermophilic bacteria [2] (setting [16]) it was 0.13; with thermophilic bacteria [2] (setting [17]), 0.07. The pH drop with thermophilic bacteria [2] (renewed addition up to total 50 mg/l, retarded from 0.13) stood at 0.07 pH units per hour.
With `CCCCCCCCCCCCCC(=O)O` [myristic acid as potassium salt, myristic acid], the “duration of effectiveness (pH drop stopped)” value with thermophilic bacteria [2] (10 mg/l, mixed culture, 65° C.) is on record as “at least 12 h”. For the same molecule, the “effect on pH drop” value with thermophilic bacteria [2] (10 mg/l, mixed culture, 65° C.) was “suddenly and lastingly be stopped”. In addition, the pH in the assay on thermophilic bacteria [2] (setting [18]) is listed as 6.46; in the assay with thermophilic bacteria [2] (setting [19]) it was 6.46; in the assay on thermophilic bacteria [2] (setting [20]) it was 6.47; in the assay on thermophilic bacteria [2] (setting [21]) it was 6.46; in the assay on thermophilic bacteria [2] (setting [22]), 6.46; in the assay on thermophilic bacteria [2] (setting [23]) it was 6.46. The pH with thermophilic bacteria [2] (setting [24]) and with thermophilic bacteria [2] (setting [25]) was 6.45 each time. Moreover, the ΔpH/h with thermophilic bacteria [2] (setting [18]) was 0.00; in the assay on thermophilic bacteria [2] (setting [19]) it was 0.00; with thermophilic bacteria [2] (setting [20]), −0.01; in the assay with thermophilic bacteria [2] (setting [21]) it was 0.01; with thermophilic bacteria [2] (setting [22]), 0.00; in the assay with thermophilic bacteria [2] (setting [23]) it was 0.00. For the same molecule, the ΔpH/h in the assay with thermophilic bacteria [2] (setting [24]) and with thermophilic bacteria [2] (setting [25]) was 0.00 in each case.
As for `CCCCCCCCCCCCCCCCCCCCCC(=O)O` [behenic acid, reference compound], the “behavior in such an example” value in the assay on thermophilic bacteria [2] is “does not exhibit any effect”.
For the molecule `CCCCCCCC/C=C\CCCCCCCC(=O)O` [oleic acid], in the assay on thermophilic bacteria [2], the “behavior in such an example” value is given as “Quite similar”.
Regarding `C/C=C/C=C/C(=O)O` [sorbic acid, reference compound], the “concentration at which the pH drop is stopped / effect reached” value in the assay with thermophilic bacteria [2] (mixed culture, 65° C.) is on record as more than 150 mg/l.
As for `CCCCCCCCCCCCCC(=O)OC` [methyl myristate], the inhibitory concentration result in assay [1] is given as “approximately 100 mg/ml”.
As for `CCCCCCCCCCCCCC(=O)OCCC` [Propyl-Myristate, reference compound], in the assay on thermophilic bacteria [3] (setting [12]), the MIC is more than 150 µg/mL.
Still for that read-out and setting: the figure for `CCCCCCCCCCCCCC(=O)OCC` [Ethyl-Myristate, reference compound] is more than 150 µg/mL.
For `CCCCCCCCCCC(=O)O` [undecanoic acid], the “concentration at which the pH drop is stopped / effect reached” value with thermophilic bacteria [2] (mixed culture, 65° C.) is on record as 40 mg/l.
